Test [1] deals with 4th stage larvae (L4) of Dirofilaria immitis. Briefly: Dirofilaria immitis, L4 Stage (DiL4) In Vitro Assay. In kind it is cell-based. As to conditions: Dirofilaria immitis, 72 h, read-out: DiL4 Minimum Effective Dose (MED), approximately 72 hours incubation; L4 larvae assessed for survival or paralysis.
The test system of test [2] is third stage larvae of Haemonchus contortus. Briefly: Haemonchus contortus L3 (HcL3) Assay. Particulars: 96 h, read-out: HcL3 Minimum Effective Dose (MED). The test is classed as cell-based.

These results are taken from patent publication US11331369B2, “Endoparasitic depsipeptides” (Zoetis Services LLC, priority 2017, dated 2022).

`CC(C)C[C@H]1C(=O)O[C@H](Cc2ccc(Cn3ccc(Cl)n3)cc2)C(=O)N(C)[C@@H](CC(C)C)C(=O)O[C@H](C)C(=O)N(C)[C@@H](CC(C)C)C(=O)O[C@H](Cc2ccc(Cn3ccc(Cl)n3)cc2)C(=O)N(C)[C@@H](CC(C)C)C(=O)O[C@H](C)C(=O)N1C` [Example 1b-96, (3S,6R,9S,12R,15S,18R,21S,24R)-6,18-bis(4-((3-chloro-1H-pyrazol-1-yl)methyl)benzyl)-3,9,15,21-tetraisobutyl-4,10,12,16,22,24-hexamethyl-1,7,13,19-tetraoxa-4,10,16,22-tetraazacyclotetracosan-2,5,8,11,14,17,20,23-octaone]: the values for the minimal effective concentration in test [1] and in test [2] were no more than 0.0001 µM and no more than 1 µM, respectively.
In the case of `CCOc1ccn(Cc2ccc(C[C@H]3OC(=O)[C@H](CC(C)C)N(C)C(=O)[C@@H](C)OC(=O)[C@H](CC(C)C)N(C)C(=O)[C@@H](Cc4ccc(Cn5ccc(OCC)n5)cc4)OC(=O)[C@H](CC(C)C)N(C)C(=O)[C@@H](C)OC(=O)[C@H](CC(C)C)N(C)C3=O)cc2)n1` [Example 1b-104, (3S,6R,9S,12R,15S,18R,21S,24R)-6,18-bis(4-((3-ethoxy-1H-pyrazol-1-yl)methyl)benzyl)-3,9,15,21-tetraisobutyl-4,10,12,16,22,24-hexamethyl-1,7,13,19-tetraoxa-4,10,16,22-tetraazacyclotetracosan-2,5,8,11,14,17,20,23-octaone], the minimal effective concentration in test [1] is 0.0001 to 0.001 µM; in test [2], no more than 1 µM.
For `COc1ccn(Cc2ccc(C[C@H]3OC(=O)[C@H](CC(C)C)N(C)C(=O)[C@@H](C)OC(=O)[C@H](CC(C)C)N(C)C(=O)[C@@H](Cc4ccc(Cn5ccc(OC)n5)cc4)OC(=O)[C@H](CC(C)C)N(C)C(=O)[C@@H](C)OC(=O)[C@H](CC(C)C)N(C)C3=O)cc2)n1` [Example 1b-115, (3S,6R,9S,12R,15S,18R,21S,24R)-3,9,15,21-tetraisobutyl-6,18-bis(4-((3-methoxy-1H-pyrazol-1-yl)methyl)benzyl)-4,10,12,16,22,24-hexamethyl-1,7,13,19-tetraoxa-4,10,16,22-tetraazacyclotetracosan-2,5,8,11,14,17,20,23-octaone], the minimal effective concentration in test [1] is no more than 0.0001 µM; in test [2] it was no more than 1 µM.
As for `Cc1ccnn1Cc1ccc(C[C@H]2OC(=O)[C@H](CC(C)C)N(C)C(=O)[C@@H](C)OC(=O)[C@H](CC(C)C)N(C)C(=O)[C@@H](Cc3ccc(Cn4nccc4C)cc3)OC(=O)[C@H](CC(C)C)N(C)C(=O)[C@@H](C)OC(=O)[C@H](CC(C)C)N(C)C2=O)cc1` [Example 1b-160, (3S,6R,9S,12R,15S,18R,21S,24R)-3,9,15,21-tetraisobutyl-4,6,10,16,18,22-hexamethyl-12,24-bis(4-((5-methyl-1H-pyrazol-1-yl)methyl)benzyl)-1,7,13,19-tetraoxa-4,10,16,22-tetraazacyclotetracosan-2,5,8,11,14,17,20,23-octaone], the results for the minimal effective concentration in test [1] and in test [2] were 0.0001 to 0.001 µM and no more than 1 µM, respectively.
As to `COCc1ccnn1Cc1ccc(C[C@H]2OC(=O)[C@H](CC(C)C)N(C)C(=O)[C@@H](C)OC(=O)[C@H](CC(C)C)N(C)C(=O)[C@@H](Cc3ccc(Cn4nccc4COC)cc3)OC(=O)[C@H](CC(C)C)N(C)C(=O)[C@@H](C)OC(=O)[C@H](CC(C)C)N(C)C2=O)cc1` [Example 1b-166, (3S,6R,9S,12R,15S,18R,21S,24R)-3,9,15,21-tetraisobutyl-6,18-bis(4-((5-(methoxymethyl)-1H-pyrazol-1-yl)methyl)benzyl)-4,10,12,16,22,24-hexamethyl-1,7,13,19-tetraoxa-4,10,16,22-tetraazacyclotetracosan-2,5,8,11,14,17,20,23-octaone], the minimal effective concentration was no more than 0.0001 µM in test [1] and 1 to 10 µM in test [2].
Regarding `CCOc1cnn(C(C)(C)c2ccc(C[C@H]3OC(=O)[C@H](CC(C)C)N(C)C(=O)[C@@H](C)OC(=O)[C@H](CC(C)C)N(C)C(=O)[C@@H](Cc4ccc(C(C)(C)n5cc(OCC)cn5)cc4)OC(=O)[C@H](CC(C)C)N(C)C(=O)[C@@H](C)OC(=O)[C@H](CC(C)C)N(C)C3=O)cc2)c1` [Example 1b-171, (3S,6R,9S,12R,15S,18R,21S,24R)-6,18-bis(4-(2-(4-ethoxy-1H-pyrazol-1-yl)propan-2-yl)benzyl)-3,9,15,21-tetraisobutyl-4,10,12,16,22,24-hexamethyl-1,7,13,19-tetraoxa-4,10,16,22-tetraazacyclotetracosan-2,5,8,11,14,17,20,23-octaone], the minimal effective concentration in test [1] is no more than 0.0001 µM; in test [2], no more than 1 µM.
`CC(C)C[C@H]1C(=O)O[C@H](Cc2ccc(Cn3nccc3-c3ccccn3)cc2)C(=O)N(C)[C@@H](CC(C)C)C(=O)O[C@H](C)C(=O)N(C)[C@@H](CC(C)C)C(=O)O[C@H](Cc2ccc(Cn3nccc3-c3ccccn3)cc2)C(=O)N(C)[C@@H](CC(C)C)C(=O)O[C@H](C)C(=O)N1C` [Example 1b-173, (3S,6R,9S,12R,15S,18R,21S,24R)-3,9,15,21-tetraisobutyl-4,6,10,16,18,22-hexamethyl-12,24-bis(4-((5-(pyridin-2-yl)-1H-pyrazol-1-yl)methyl)benzyl)-1,7,13,19-tetraoxa-4,10,16,22-tetraazacyclotetracosan-2,5,8,11,14,17,20,23-octaone]: the minimal effective concentration in test [1] was 0.0001 to 0.001 µM; in test [2] it was no more than 1 µM.
Consider `CCOCc1ccnn1Cc1ccc(C[C@H]2OC(=O)[C@H](CC(C)C)N(C)C(=O)[C@@H](C)OC(=O)[C@H](CC(C)C)N(C)C(=O)[C@@H](Cc3ccc(Cn4nccc4COCC)cc3)OC(=O)[C@H](CC(C)C)N(C)C(=O)[C@@H](C)OC(=O)[C@H](CC(C)C)N(C)C2=O)cc1` [Example 1b-176, (3S,6R,9S,12R,15S,18R,21S,24R)-6,18-bis(4-((5-(ethoxymethyl)-1H-pyrazol-1-yl)methyl)benzyl)-3,9,15,21-tetraisobutyl-4,10,12,16,22,24-hexamethyl-1,7,13,19-tetraoxa-4,10,16,22-tetraazacyclotetracosan-2,5,8,11,14,17,20,23-octaone], for which the minimal effective concentration in test [1] was no more than 0.0001 µM; in test [2], no more than 1 µM.
As for `Cc1cccc(-c2ccnn2Cc2ccc(C[C@H]3OC(=O)[C@H](CC(C)C)N(C)C(=O)[C@@H](C)OC(=O)[C@H](CC(C)C)N(C)C(=O)[C@@H](Cc4ccc(Cn5nccc5-c5cccc(C)n5)cc4)OC(=O)[C@H](CC(C)C)N(C)C(=O)[C@@H](C)OC(=O)[C@H](CC(C)C)N(C)C3=O)cc2)n1` [Example 1b-177, (3S,6R,9S,12R,15S,18R,21S,24R)-3,9,15,21-tetraisobutyl-4,6,10,16,18,22-hexamethyl-12,24-bis(4-((5-(6-methylpyridin-2-yl)-1H-pyrazol-1-yl)methyl)benzyl)-1,7,13,19-tetraoxa-4,10,16,22-tetraazacyclotetracosan-2,5,8,11,14,17,20,23-octaone], the minimal effective concentration in test [1] was no more than 0.0001 µM; in test [2] it was no more than 1 µM.
In the case of `CC(C)C[C@H]1C(=O)O[C@H](Cc2ccc(Cn3nccc3-c3ccc(F)cn3)cc2)C(=O)N(C)[C@@H](CC(C)C)C(=O)O[C@H](C)C(=O)N(C)[C@@H](CC(C)C)C(=O)O[C@H](Cc2ccc(Cn3nccc3-c3ccc(F)cn3)cc2)C(=O)N(C)[C@@H](CC(C)C)C(=O)O[C@H](C)C(=O)N1C` [Example 1b-189, (3S,6R,9S,12R,15S,18R,21S,24R)-6,18-bis(4-((5-(5-fluoropyridin-2-yl)-1H-pyrazol-1-yl)methyl)benzyl)-3,9,15,21-tetraisobutyl-4,10,12,16,22,24-hexamethyl-1,7,13,19-tetraoxa-4,10,16,22-tetraazacyclotetracosan-2,5,8,11,14,17,20,23-octaone], the minimal effective concentration was 0.0001 to 0.001 µM in test [1] and 10 to 100 µM in test [2].
Consider `CC(C)C[C@H]1C(=O)O[C@H](Cc2ccc(Cn3nccc3-c3cnccn3)cc2)C(=O)N(C)[C@@H](CC(C)C)C(=O)O[C@H](C)C(=O)N(C)[C@@H](CC(C)C)C(=O)O[C@H](Cc2ccc(Cn3nccc3-c3cnccn3)cc2)C(=O)N(C)[C@@H](CC(C)C)C(=O)O[C@H](C)C(=O)N1C` [Example 1b-208, (3S,6R,9S,12R,15S,18R,21S,24R)-3,9,15,21-tetraisobutyl-4,6,10,16,18,22-hexamethyl-12,24-bis(4-((5-(pyrazin-2-yl)-1H-pyrazol-1-yl)methyl)benzyl)-1,7,13,19-tetraoxa-4,10,16,22-tetraazacyclotetracosan-2,5,8,11,14,17,20,23-octaone], for which the minimal effective concentration in test [1] lay within 0.001 to 0.01 µM; in test [2], 10 to 100 µM.
As for `COC(C)c1ccnn1Cc1ccc(C[C@H]2OC(=O)[C@H](CC(C)C)N(C)C(=O)[C@@H](C)OC(=O)[C@H](CC(C)C)N(C)C(=O)[C@@H](Cc3ccc(Cn4nccc4C(C)OC)cc3)OC(=O)[C@H](CC(C)C)N(C)C(=O)[C@@H](C)OC(=O)[C@H](CC(C)C)N(C)C2=O)cc1` (stereo partly drawn) [Example 1b-212, (3S,6R,9S,12R,15S,18R,21S,24R)-3,9,15,21-tetraisobutyl-6,18-bis(4-((5-(1-methoxyethyl)-1H-pyrazol-1-yl)methyl)benzyl)-4,10,12,16,22,24-hexamethyl-1,7,13,19-tetraoxa-4,10,16,22-tetraazacyclotetracosan-2,5,8,11,14,17,20,23-octaone], the minimal effective concentration was 0.0001 to 0.001 µM in test [1] and no more than 1 µM in test [2].
For the compound `CC(C)C[C@H]1C(=O)O[C@H](Cc2ccc(C3(n4cccn4)CCC3)cc2)C(=O)N(C)[C@@H](CC(C)C)C(=O)O[C@H](C)C(=O)N(C)[C@@H](CC(C)C)C(=O)O[C@H](Cc2ccc(C3(n4cccn4)CCC3)cc2)C(=O)N(C)[C@@H](CC(C)C)C(=O)O[C@H](C)C(=O)N1C` [Example 1c-1, (3S,6R,9S,12R,15S,18R,21S,24R)-6,18-bis(4-(1-(1H-pyrazol-1-yl)cyclobutyl)benzyl)-3,9,15,21-tetraisobutyl-4,10,12,16,22,24-hexamethyl-1,7,13,19-tetraoxa-4,10,16,22-tetraazacyclotetracosan-2,5,8,11,14,17,20,23-octaone], the minimal effective concentration in test [1] was no more than 0.0001 µM; in test [2], no more than 1 µM.
